Laboratory results published in article PMC6114103, “17-DMAG inhibits the multiplication of several Babesia species and Theileria equi on in vitro cultures, and Babesia microti in mice” (International Journal for Parasitology: Drugs and Drug …, 2018).

Experiments:
[1] = system: B. bigemina (Argentina strain); assay: in vitro multiplication inhibition assay (SYBR Green I fluorescence, 96 h), single drugs and two-drug combinations; assay type: cell-based, Babesia bigemina; settings: for IC50: Babesia bigemina, B. bigemina, 96 h, triplicate, mean ± SD, read-out: IC50 on in vitro culture of parasites; for Selectivity index MDBK: ratio IC50 MDBK to IC50 B. bigemina; for Selectivity index NIH/3T3: ratio IC50 NIH/3T3 to IC50 B. bigemina
Description: (§1) Babesia parasite cultures were maintained using a microaerophilic stationary-phase culture system ([Levy and Ristic, 1980]; [Avarzed et al., 1997]; [Igarashi et al., 1998]). Briefly, bovine Babesia parasites were grown in bovine red blood cells (RBC) in the specific complete medium for each species. The medium for B. bovis (Texas strain) contained GIT medium supplemented with 10% bovine serum, while the medium for B. bigemina (Argentina strain) and B. divergens (Germany strain) was Medium 199 and RPMI 1640 medium, respectively, supplemented with 40% bovine serum ([Rizk et al., 2016]). B. caballi (USDA strain) was grown using equine RBC in GIT medium supplemented with 10% equine serum. T. equi (USDA strain) was grown in equine RBC in M199 medium supplemented with 40% equine serum and hypoxanthine (MP Biomedicals, USA) at a final concentration of 13.6 μg/ml. All of the media included 60 U/ml penicillin G, 60 μg/ml streptomycin, and 0.15 μg/ml amphotericin B (Sigma-Aldrich, USA). The cultures were incubated at 37 °C in a humidified chamber with an atmosphere of 5% CO2, 5% O2, and 90% N2.
(§2) The assays were conducted in accordance with the protocol described previously with modification ([Guswanto et al., 2014]). Briefly, the cultures of B. bovis, B. bigemina, B. divergens, B. caballi, and T. equi with a parasitemia of 8%, 3%, 10%, 4%, and 9%, respectively, were harvested and adjusted to 1% parasitemia with fresh RBC before the inhibition assay. The 60 inner wells of a 96-well plate were used in the assay, while the peripheral wells were filled with sterile distillate water to reduce evaporation during incubation. To each well in triplicate, 2.5 μl of infected RBC (5 μl for B. divergens, B. caballi, and T. equi) was added and mixed with a culture medium containing the drug to a total volume of 100 μl. The stock solution of 17-DMAG, DA, and AV was dissolved in a culture medium at various concentrations using two-fold dilution. A culture medium containing DMSO at a final concentration of 0.2% was added to the well with infected RBC as a positive control and to the well with uninfected RBC as a negative control. Furthermore, a drug combination assay was conducted in parallel with the single drug assay at the constant ratio in accordance with the Chou–Talalay method ([Chou, 2006]). In the same plate with a single drug inhibition assay, a two-drug combination (DA+17-DMAG, DA + AV, and 17-DMAG + AV) at concentrations of 0.25 x IC50, 0.5 x IC50, IC50, 2 x IC50, and 4 x IC50 was added to the well containing infected RBC in triplicate. The plate was incubated in a humidified incubator with 5% CO2, 5% O2, and 90% N2. After 96 h, 100 μl of a lysis buffer containing SYBR Green I was added to each well. The plate was wrapped with aluminum foil to avoid direct light exposure and incubated at room temperature. After incubation for 6 h, fluorescence values were measured using a fluorescence spectrophotometer (Fluoroskan Ascent, Thermo Fisher Scientific, USA) with the excitation and emission wavelength at 485 nm and 518 nm, respectively. The fluorescence data were subtracted from the negative control and used to calculate the IC50.
(§3) The IC50 of 17-DMAG, DA, and AV was calculated from the percentage of inhibition on the in vitro multiplication of all tested species using non-linear regression (curve fit), available in GraphPad Prism (GraphPad Software Inc., USA). Combination index (CI) values for the drug combination were calculated using CompuSyn software ([Chou, 2006]). Since the chemotherapy effect is preferable at the highest inhibition, the degree of synergism was determined as the weighted average of CI values using a formula ((1 x IC50) + (2 x IC75) + (3 x IC90) + (4 x IC95))/10 ([Chou, 2006]). The differences among groups regarding the parasitemia, hematology profiles, and body weight in the B. microti–infected mouse model were analyzed using Student's t-test, available in GraphPad Prism software.

B. caballi (USDA strain) = assay: as above; assay type: cell-based, Babesia caballi; settings: for IC50: Babesia caballi, B. caballi, 96 h, triplicate, mean ± SD, read-out: IC50 on in vitro culture of parasites; for Selectivity index MDBK: ratio IC50 MDBK to IC50 B. caballi; for Selectivity index NIH/3T3: ratio IC50 NIH/3T3 to IC50 B. caballi
Description: as §1, §2, §3

B. bovis (Texas strain) = assay: as above; assay type: cell-based, Babesia bovis; settings: for IC50: Babesia bovis, in Bos taurus, B. bovis, 96 h, triplicate, mean ± SD, read-out: IC50 on in vitro culture of parasites; for Selectivity index MDBK: ratio IC50 MDBK to IC50 B. bovis; for Selectivity index NIH/3T3: ratio IC50 NIH/3T3 to IC50 B. bovis
Description: as §1, §2, §3

MDBK cells = assay: cytotoxicity (drug-exposure viability) assay, CCK-8; assay type: cell-based, bovine; settings: for IC50: Bos taurus, MDBK, 24 h exposure, CCK-8, read-out: IC50 on cell line MDBK
Description: Each medium was supplemented with 10% fetal bovine serum, 0.5% penicillin/streptomycin (Gibco, Life Technologies, USA), and an additional 1% glutamine. The medium was changed every 3–4 days and incubated until approximately 80% confluent. The cells were free from mycoplasma contamination after being checked by staining with DAPI (Sigma-Aldrich, USA). The detachment of cells from the culture flask was done using TrypLE™ Express (Gibco, Life Technologies, USA) after washing two times with Dulbecco's phosphate-buffered saline (DPBS). Subsequently, the counting of viable cells was carried out using a Neubauer improved C-Chip (NanoEntek Inc., Korea) after staining with 0.4% trypan blue solution. The drug-exposure viability assay was performed in accordance with the recommendation of the Cell Counting Kit-8 (CCK-8, Dojindo, Japan). Briefly, the assay was carried out using a 96-well plate at 37 °C in a humidified incubator with 5% CO2. One hundred microliters of cells at a density of 5 × 10^4 cells/ml was seeded per well and allowed to attach to the plate for 24 h. […] The exposure of drugs was carried out for 24 h, followed by the addition of 10 μl of CCK-8. The plate was further incubated for 3 h, and the absorbance was measured at 450 nm using a microplate reader.

[2] = system: B. divergens (Germany strain); assay: in vitro multiplication inhibition assay (SYBR Green I fluorescence, 96 h), single drugs and two-drug combinations; assay type: cell-based, Babesia divergens; settings: for IC50: Babesia divergens, B. divergens, 96 h, triplicate, mean ± SD, read-out: IC50 on in vitro culture of parasites; for Selectivity index MDBK: ratio IC50 MDBK to IC50 B. divergens; for Selectivity index NIH/3T3: ratio IC50 NIH/3T3 to IC50 B. divergens
Description: as §1, §2, §3

Structure (SMILES)	IC50 [1]	Selectivity index MDBK [1]	Selectivity index NIH/3T3 [1]	IC50 (B. caballi (USDA strain))	Selectivity index MDBK (B. caballi (USDA strain))	Selectivity index NIH/3T3 (B. caballi (USDA strain))	IC50 (B. bovis (Texas strain))	Selectivity index MDBK (B. bovis (Texas strain))	Selectivity index NIH/3T3 (B. bovis (Texas strain))	IC50 (MDBK cells)	inhibition on MDBK cell viability (MDBK cells; at a concentration of 40 μM, separate assay)	IC50 [2]	Selectivity index MDBK [2]	Selectivity index NIH/3T3 [2]
O=C1C(O)=C([C@H]2CC[C@H](c3ccc(Cl)cc3)CC2)C(=O)c2ccccc21 [AV, atovaquone]	706 ± 38.7 nM	>57	>57	102 ± 14.1 nM	>393	>393	39.7 ± 2.4 nM	>1008	>1008	> 40000 nM	did not show any inhibition	13.4 ± 1.4 nM	>2985	>2985
CO[C@H]1/C=C\C=C(/C)C(=O)NC2=CC(=O)C(NCCN(C)C)=C(C[C@@H](C)C[C@H](OC)[C@H](O)[C@@H](C)/C=C(\C)[C@@H]1OC(N)=O)C2=O [17-DMAG, 17-dimethylaminoethylamino-17-demethoxygeldanamycin]	62.4 ± 1.9 nM	141	248	88.5 ± 9.6 nM	99	175	77.6 ± 2.9 nM	113	200	8800 ± 2000 nM	–	184 ± 3.2 nM	48	84
